Data set [1] can be described thus: Drug metabolism in human liver microsomes assessed as compound remaining after 1 hr. The following applies: read-out: Drug metabolism. The format is ADME. A general note: Microsomes from liver hold many membrane-bound enzymes, among them those of drug oxidation.
In data set [2] the target is Muscarinic acetylcholine receptor M4 (Homo sapiens, UniProt P08173). Description: Binding affinity to muscarinic M4 receptor (unknown origin).
Data set [3] has as its target Muscarinic acetylcholine receptor M2 (Homo sapiens, UniProt P08172). Description: Binding affinity to muscarinic M2 receptor (unknown origin).
For data set [4], the target named is Sodium-dependent noradrenaline transporter (Homo sapiens, UniProt P23975). Description: Binding affinity to NET (unknown origin).
Chain of Sodium-dependent noradrenaline transporter (P23975 whole entry): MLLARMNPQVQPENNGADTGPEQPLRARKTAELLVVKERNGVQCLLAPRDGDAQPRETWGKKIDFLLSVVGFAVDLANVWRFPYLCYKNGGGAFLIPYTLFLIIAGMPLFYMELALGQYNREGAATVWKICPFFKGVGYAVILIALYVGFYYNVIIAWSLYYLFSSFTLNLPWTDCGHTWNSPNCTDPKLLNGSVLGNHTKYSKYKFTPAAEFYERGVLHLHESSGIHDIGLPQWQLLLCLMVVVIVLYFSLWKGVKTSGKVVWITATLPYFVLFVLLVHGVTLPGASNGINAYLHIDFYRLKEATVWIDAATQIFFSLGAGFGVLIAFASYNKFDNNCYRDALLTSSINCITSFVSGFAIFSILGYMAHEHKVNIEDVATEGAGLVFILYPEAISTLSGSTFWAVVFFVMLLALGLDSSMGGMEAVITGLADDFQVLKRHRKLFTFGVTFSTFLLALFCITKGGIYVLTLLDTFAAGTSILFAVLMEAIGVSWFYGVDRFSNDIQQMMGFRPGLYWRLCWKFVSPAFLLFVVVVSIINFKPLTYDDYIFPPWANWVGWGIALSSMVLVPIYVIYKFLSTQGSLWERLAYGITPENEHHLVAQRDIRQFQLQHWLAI
Data set [5] concerns the target Alpha-2C adrenergic receptor (Homo sapiens, UniProt P18825). Kind of data set: Binding affinity to adrenergic alpha2C receptor (unknown origin).
Another data set has as its target Mu-type opioid receptor (Homo sapiens, UniProt P35372). Description: Inhibition of mu opioid receptor (unknown origin) using DAMGO by high content imaging beta-arrestin translocation assay.
For data set [6], the target named is 5-hydroxytryptamine receptor 2B (Homo sapiens, UniProt P41595). Kind of data set: Binding affinity to 5-HT2B receptor (unknown origin).
Chain of 5-hydroxytryptamine receptor 2B (P41595 whole entry): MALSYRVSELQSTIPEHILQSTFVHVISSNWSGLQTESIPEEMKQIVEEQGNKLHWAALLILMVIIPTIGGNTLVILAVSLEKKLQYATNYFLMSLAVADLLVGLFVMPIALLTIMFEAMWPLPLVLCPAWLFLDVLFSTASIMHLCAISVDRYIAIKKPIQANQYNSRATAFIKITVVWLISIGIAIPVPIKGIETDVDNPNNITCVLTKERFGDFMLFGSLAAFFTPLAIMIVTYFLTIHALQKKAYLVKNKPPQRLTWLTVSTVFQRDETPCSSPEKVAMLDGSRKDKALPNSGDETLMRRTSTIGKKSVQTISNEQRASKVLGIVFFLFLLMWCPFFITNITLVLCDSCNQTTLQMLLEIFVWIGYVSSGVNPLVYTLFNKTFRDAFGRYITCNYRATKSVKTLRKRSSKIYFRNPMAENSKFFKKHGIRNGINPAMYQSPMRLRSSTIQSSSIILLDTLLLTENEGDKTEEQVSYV
Data set [7] concerns the target Muscarinic acetylcholine receptor M3 (Homo sapiens, UniProt P20309). Kind of data set: Binding affinity to muscarinic M3 receptor (unknown origin).
The target of data set [8] is Sigma non-opioid intracellular receptor 1 (Homo sapiens, UniProt Q99720). Kind of data set: Binding affinity to sigma-1 receptor (unknown origin).
Chain of Sigma non-opioid intracellular receptor 1 (Q99720 whole entry): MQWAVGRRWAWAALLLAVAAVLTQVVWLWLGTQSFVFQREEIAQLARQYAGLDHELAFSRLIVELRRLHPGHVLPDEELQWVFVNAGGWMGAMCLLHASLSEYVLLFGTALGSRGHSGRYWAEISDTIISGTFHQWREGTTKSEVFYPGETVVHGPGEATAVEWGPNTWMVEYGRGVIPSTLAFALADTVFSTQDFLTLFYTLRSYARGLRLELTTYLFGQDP
Data set [9] addresses Delta-type opioid receptor (Homo sapiens, UniProt P41143). Description: Inhibition of delta opioid receptor (unknown origin) using SNC-80 by high content imaging beta-arrestin translocation assay.
For the next data set, the target named is Histamine H1 receptor (Homo sapiens, UniProt P35367). Description: Binding affinity to histamine H1 receptor (unknown origin).
Chain of Histamine H1 receptor (P35367 whole entry): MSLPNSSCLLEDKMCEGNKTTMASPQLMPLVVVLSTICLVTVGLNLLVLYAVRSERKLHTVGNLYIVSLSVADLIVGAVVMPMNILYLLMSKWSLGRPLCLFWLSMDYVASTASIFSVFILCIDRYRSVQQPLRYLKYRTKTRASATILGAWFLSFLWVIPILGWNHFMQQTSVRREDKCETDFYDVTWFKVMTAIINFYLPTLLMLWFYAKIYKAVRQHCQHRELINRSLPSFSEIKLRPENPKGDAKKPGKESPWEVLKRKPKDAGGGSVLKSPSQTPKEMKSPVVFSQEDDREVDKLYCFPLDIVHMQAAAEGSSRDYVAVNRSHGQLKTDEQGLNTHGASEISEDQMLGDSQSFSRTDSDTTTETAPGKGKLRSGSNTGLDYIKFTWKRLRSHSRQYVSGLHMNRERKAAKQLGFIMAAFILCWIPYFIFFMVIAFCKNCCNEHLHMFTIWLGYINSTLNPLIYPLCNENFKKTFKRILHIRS
For data set [10], the target named is Muscarinic acetylcholine receptor M1 (Homo sapiens, UniProt P11229). Description: Binding affinity to muscarinic M1 receptor (unknown origin).
Chain of Muscarinic acetylcholine receptor M1 (P11229 whole entry): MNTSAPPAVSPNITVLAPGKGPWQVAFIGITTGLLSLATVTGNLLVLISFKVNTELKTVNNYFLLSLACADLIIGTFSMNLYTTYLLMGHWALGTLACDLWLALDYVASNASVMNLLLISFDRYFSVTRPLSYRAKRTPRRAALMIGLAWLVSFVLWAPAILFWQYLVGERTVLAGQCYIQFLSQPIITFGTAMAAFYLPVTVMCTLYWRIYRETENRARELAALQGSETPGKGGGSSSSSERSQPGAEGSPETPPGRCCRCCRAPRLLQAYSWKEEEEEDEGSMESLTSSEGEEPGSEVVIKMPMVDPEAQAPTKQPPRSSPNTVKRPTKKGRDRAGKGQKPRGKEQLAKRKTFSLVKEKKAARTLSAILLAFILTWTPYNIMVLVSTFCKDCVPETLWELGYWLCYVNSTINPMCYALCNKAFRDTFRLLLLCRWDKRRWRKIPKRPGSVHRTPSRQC

The values below come from ChEMBL document CHEMBL3259577, “Antagonists of the kappa opioid receptor” (Bioorg Med Chem Lett, 2014).

Broadly, the Ki is the equilibrium dissociation constant of an inhibitor or competing ligand from its target. One may read the IC50 as the concentration that inhibits the measured activity by half.

Chain of Alpha-2C adrenergic receptor (P18825 whole entry): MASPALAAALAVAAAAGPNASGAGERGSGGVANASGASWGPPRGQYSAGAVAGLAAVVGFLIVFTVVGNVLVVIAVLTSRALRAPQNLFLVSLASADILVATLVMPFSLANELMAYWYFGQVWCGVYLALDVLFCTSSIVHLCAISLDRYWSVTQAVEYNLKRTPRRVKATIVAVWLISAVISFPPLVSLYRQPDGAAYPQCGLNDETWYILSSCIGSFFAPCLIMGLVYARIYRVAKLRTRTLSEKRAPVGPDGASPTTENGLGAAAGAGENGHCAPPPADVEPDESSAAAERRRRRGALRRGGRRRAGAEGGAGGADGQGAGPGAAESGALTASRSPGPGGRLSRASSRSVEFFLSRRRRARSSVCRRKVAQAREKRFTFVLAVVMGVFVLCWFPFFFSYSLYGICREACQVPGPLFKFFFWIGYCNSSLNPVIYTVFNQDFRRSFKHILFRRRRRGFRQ
Chain of Muscarinic acetylcholine receptor M3 (P20309 whole entry): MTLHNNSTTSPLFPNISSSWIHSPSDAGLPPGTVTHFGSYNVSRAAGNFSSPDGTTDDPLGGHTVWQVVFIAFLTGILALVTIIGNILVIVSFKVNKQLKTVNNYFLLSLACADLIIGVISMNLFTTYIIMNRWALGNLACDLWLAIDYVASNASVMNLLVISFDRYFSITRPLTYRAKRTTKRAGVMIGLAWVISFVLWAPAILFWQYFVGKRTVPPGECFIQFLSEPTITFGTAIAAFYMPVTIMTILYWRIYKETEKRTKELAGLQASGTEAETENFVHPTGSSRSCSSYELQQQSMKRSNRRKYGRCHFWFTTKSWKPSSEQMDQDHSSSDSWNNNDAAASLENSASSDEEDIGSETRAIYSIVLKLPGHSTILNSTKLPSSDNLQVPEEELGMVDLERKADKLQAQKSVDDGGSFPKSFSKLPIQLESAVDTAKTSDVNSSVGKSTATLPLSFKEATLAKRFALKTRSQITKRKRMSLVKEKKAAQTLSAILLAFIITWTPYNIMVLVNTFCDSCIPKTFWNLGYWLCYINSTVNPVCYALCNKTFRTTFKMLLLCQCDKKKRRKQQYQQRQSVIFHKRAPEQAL
Chain of Muscarinic acetylcholine receptor M2 (P08172 whole entry): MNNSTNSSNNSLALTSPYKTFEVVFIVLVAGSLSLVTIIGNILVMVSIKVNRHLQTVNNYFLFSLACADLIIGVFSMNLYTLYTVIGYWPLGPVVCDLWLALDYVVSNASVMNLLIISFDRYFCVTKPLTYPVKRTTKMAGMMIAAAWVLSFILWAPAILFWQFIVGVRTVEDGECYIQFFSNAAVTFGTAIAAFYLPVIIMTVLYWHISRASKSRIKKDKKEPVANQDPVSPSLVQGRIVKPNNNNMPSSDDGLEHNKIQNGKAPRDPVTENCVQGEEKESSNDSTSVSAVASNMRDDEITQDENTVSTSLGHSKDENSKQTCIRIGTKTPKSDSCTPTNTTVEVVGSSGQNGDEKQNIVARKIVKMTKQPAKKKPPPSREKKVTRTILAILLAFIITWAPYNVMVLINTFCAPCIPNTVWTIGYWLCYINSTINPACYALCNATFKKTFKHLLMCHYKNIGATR
Chain of Mu-type opioid receptor (P35372 whole entry): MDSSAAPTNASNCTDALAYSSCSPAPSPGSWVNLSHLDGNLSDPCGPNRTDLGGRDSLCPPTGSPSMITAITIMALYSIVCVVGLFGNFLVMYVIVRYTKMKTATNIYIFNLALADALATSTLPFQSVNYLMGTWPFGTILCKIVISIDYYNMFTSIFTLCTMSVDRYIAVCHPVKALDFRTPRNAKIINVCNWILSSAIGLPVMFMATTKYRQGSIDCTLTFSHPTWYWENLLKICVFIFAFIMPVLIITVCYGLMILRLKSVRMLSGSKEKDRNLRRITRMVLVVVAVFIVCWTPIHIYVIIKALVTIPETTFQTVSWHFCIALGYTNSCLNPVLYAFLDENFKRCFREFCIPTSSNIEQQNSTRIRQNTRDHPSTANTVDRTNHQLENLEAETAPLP
Chain of Delta-type opioid receptor (P41143 whole entry): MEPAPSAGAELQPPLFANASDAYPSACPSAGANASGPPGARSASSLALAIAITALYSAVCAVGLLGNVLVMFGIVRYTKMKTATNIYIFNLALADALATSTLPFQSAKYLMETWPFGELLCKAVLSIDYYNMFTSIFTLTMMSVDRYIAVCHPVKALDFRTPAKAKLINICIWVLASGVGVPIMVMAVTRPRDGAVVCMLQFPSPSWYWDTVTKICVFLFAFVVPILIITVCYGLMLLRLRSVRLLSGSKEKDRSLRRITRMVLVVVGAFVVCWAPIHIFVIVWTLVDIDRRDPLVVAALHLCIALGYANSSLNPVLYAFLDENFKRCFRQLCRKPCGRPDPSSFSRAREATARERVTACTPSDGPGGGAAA

Turning to `Cc1ccc(S(=O)(=O)NCc2ccc(C(=O)NCCN(Cc3ccccc3)C(C)C)cc2)cc1`, the remaining at 1 h in [1] is 0.07%. Also, the Ki in data set [2], in data set [3], in data set [4], in data set [5], in [6] and in data set [7] was under 1000 nM in each case. The Ki (in data set [8]; at Histamine H1 receptor; in [10]) was under 1000 nM in each case. The IC50 was over 24000 nM at Mu-type opioid receptor and over 32000 nM in [9].
